# Experimental data reported in a melting point compilation (Tetko et al.).
row,SMILES,melting point [°C]
1,CS(=O)(=O)Cc1nc2ccccc2n1CC(=O)O,249 to 251
2,Cc1nnc(-c2ccccc2C(=O)O)o1,158 to 160
3,O=C(O)Cc1ccc(NS(=O)(=O)c2cccc(C(F)(F)F)c2)cc1,122 to 124
4,Cc1cc(-n2nc(C)cc2N)nc(C)n1,104 to 106
5,COc1ccc(-n2cnnc2S)cn1,199 to 201
6,NC(CC(=O)O)c1cccc(Cl)c1 (configuration not stated),227 to 229
7,CCN(C(=O)N1CCC(C(=O)O)CC1)C(C)C,107 to 109
8,CNc1nc(C)cs1,69 to 71
9,Sc1nc(-c2cc3ccccc3o2)no1,152 to 154
10,CS(=O)(=O)c1ccc(Cl)c(S(=O)(=O)Cl)c1,141 to 143
11,Nc1cccc(Oc2ccncc2)c1,107 to 109
12,CC(=O)c1ccc(OCC(=O)N(C)C)cc1,125 to 127
13,O=C(CCl)N1CCN(S(=O)(=O)c2c(F)cccc2F)CC1,119 to 121
14,Cc1cc(S(N)(=O)=O)cc(C(=O)O)c1C,261 to 263
15,COc1ccc(C2=CCNC2)cc1,94 to 96
16,O=C(O)c1cccc(CSc2c(Cl)cccc2Cl)c1,222 to 224
17,Cc1ccc(C)c(OCc2nnc(S)o2)c1,135 to 137
18,CCN(C)C(=O)c1cccc(C(=O)O)c1,102 to 104
19,NC1CCN(c2ccc(C(F)(F)F)cc2)C1=O (configuration not stated),132 to 134
20,CS(=O)(=O)CCCS(=O)(=O)Cl,62 to 64
21,O=C(O)Cc1cc2ccccc2[nH]c1=O,278 to 280
22,O=S(=O)(Nc1ccccc1Br)N1CCCC1,69 to 71
23,Cc1nc(N)cc(C2CC2)n1,159 to 161
24,CC(N)c1ccc(S(N)(=O)=O)cc1 (configuration not stated),148 to 150
25,O=c1ccc(C(F)(F)F)n[nH]1,125 to 127

row,SMILES,melting point [°C]
1,CCN1CCNC1=O,75 to 77
2,N#Cc1cccc(C(=O)NNC(=O)CCl)c1,199 to 201
3,Nc1ccc(-c2nc3ccccc3s2)cn1,187 to 189
4,O=C(O)c1ccc(=O)n(-c2ccccc2)n1,208 to 210
5,O=C1NCCc2ccc(Br)cc21,144 to 146
6,COc1ncccc1C(N)=O,130 to 132
7,c1ccc(CNc2nc3ccccc3[nH]2)cc1,147 to 149
8,CON(C)S(=O)(=O)c1cc(C(=O)O)ccc1Cl,228 to 230
9,O=C(O)C1CCCCN1C(=O)c1cccnc1 (configuration not stated),188 to 190
10,Nc1ncc(Cc2ccc(S(N)(=O)=O)cc2)s1,177 to 179
11,CCCc1c(C(=O)O)[nH]c(C)c1C(C)=O,214 to 216
12,COc1ccc(N2CCC(=O)CC2)cc1,66 to 68
13,ClC(Cl)(Cl)C(c1ccc(Br)cc1)c1ccc(Br)cc1,144 to 146
14,CCOC(=O)NCCC(=O)O,47 to 49
15,O=C1CN=C(S)N1C1CCCCCC1,72 to 74
16,O=C(O)CS(=O)(=O)CC(=O)Nc1cccc(Br)c1,165 to 167
17,CCOc1ccc(NS(=O)(=O)c2ccc(N)cc2)cc1,145 to 147
18,Nc1ccc(N2CCN(C(=O)C3CC3)CC2)cn1,153 to 155
19,Nc1nc(-c2ccccc2Cl)ns1,119 to 121
20,Nn1c(S)nnc1C1CCCO1 (configuration not stated),143 to 147
21,CC1CCC2(CC1)COC(=O)N2 (configuration not stated),126 to 128
22,CC(=O)N1CCCc2cc(Br)ccc21,59 to 61
23,CC(C)(C)OC(=O)N1CCCCCC1C(N)=NO (configuration not stated),150 to 152
24,CC(C(=O)O)c1cccc(F)c1 (configuration not stated),59 to 61
25,N#Cc1cc(C2CC2)ccn1,60 to 62

row,SMILES,melting point [°C]
1,COc1ccc(S(=O)(=O)Nc2nccs2)cc1,172 to 174
2,COC(=O)c1ccc(COc2ccccc2C=O)cc1,90 to 92
3,O=C(O)c1nc(OCC2CC2)c2ccccc2n1,109 to 111
4,CC1CCCC(C(N)C(=O)O)C1 (configuration not stated),301 to 303
5,Cc1ccc(C)c(NC(=S)NN)c1,162 to 164
6,NC(CC1CCOC1)C(=O)O (configuration not stated),269 to 271
7,Cc1n[nH]c(N)c1I,102 to 104
8,Cc1cc(N)ccc1S(N)(=O)=O,169 to 171
9,O=c1cc[nH]c2ccc(Br)cc12,286 to 288
10,Cc1ccc(SC2=C(C(=O)O)CCCC2)cc1,199 to 201
11,O=[N+]([O-])c1n[nH]cc1Br,193 to 195
12,NC(=S)C1CCCCC1,115 to 117
13,Cn1cccc(N)c1=O,112 to 114
14,Cc1ncc(CN)c(O)n1,194 to 196
15,O=Cc1ccc(-c2cccc(F)c2)s1,101 to 103
16,N#Cc1ccc(-c2csc(N)n2)cc1,267 to 269
17,Cc1cc(CCC(=O)O)c(C)s1,57 to 59
18,O=c1[nH]cnc2cc(F)ccc12,260 to 262
19,O=C(O)c1ccc(Cn2cc(Cl)cn2)o1,117 to 119
20,O=C(O)c1nc(-c2cccs2)n(-c2ccccc2)n1,199 to 201
21,COc1ccccc1C(=O)NC(C(=O)O)C(C)C (configuration not stated),128 to 129
22,CCOc1cccc2cc(C(C)=O)oc12,72 to 74
23,COc1cc(N)c(O)cc1[N+](=O)[O-],149 to 151
24,CCOc1cc(N)ccc1OC,77 to 79
25,NCC1(C(N)=O)CCOCC1,113 to 115

row,SMILES,melting point [°C]
1,O=C(O)CCCNC(=O)c1ccco1,91 to 93
2,CNc1ccc(S(C)(=O)=O)cc1,126 to 128
3,O=c1[nH]ncc2cccnc12,309 to 311
4,CC(C)Cn1[nH]c(CC(=O)O)cc1=O,164 to 166
5,O=C(O)CCn1ccc2cc(Cl)ccc21,59 to 61
6,COc1cc(C)c(C(C)=O)cc1C,74 to 76
7,NC(=S)c1cccc(-c2nnc(N)o2)c1,259 to 261
8,NC(=O)CCc1ccc(C(=O)O)cc1,226 to 228
9,N#Cc1nc(Cl)ccc1Cl,98 to 100
10,CCC(CC)(CN)NC(=O)OC(C)(C)C,49 to 51
11,N#Cc1c(Cl)cccc1Oc1cccc(C(=O)O)c1,239 to 241
12,O=C1NC(=O)C(c2cccc(O)c2)N1 (configuration not stated),213 to 215
13,O=C1COc2cc(S(=O)(=O)Cl)c(Cl)cc2N1,248 to 250
14,CCc1ccc(NC(=O)c2nnc(CCl)s2)cc1,126 to 128
15,CCc1onc(C)c1C(=O)O,126 to 128
16,Nc1nc2c(s1)CCc1ccccc1-2,58 to 66
17,NS(=O)(=O)c1cc(C(=O)O)cc2c1CCCC2,275 to 277
18,CC(NC(=O)CC1CCCCC1)C(=O)O (configuration not stated),156 to 158
19,CS(=O)(=O)N1CCCC1C#N (configuration not stated),62 to 64
20,Sc1ncccc1Cl,204 to 206
21,Oc1nc(-c2ccc(Cl)cc2)cs1,218 to 220
22,O=Cc1c(F)cccc1N1CCCC1,41 to 43
23,COc1ccc(C=CC(=O)O)cc1S(=O)(=O)N1CCCCC1,219 to 221
24,O=[N+]([O-])c1cnc(O)c(Cl)c1,198 to 200
25,COc1ccc(NS(=O)(=O)c2ccc(N)cc2)c(OC)c1,119 to 121

row,SMILES,melting point [°C]
1,Cc1cc(Br)ccc1NS(C)(=O)=O,144 to 146
2,Cc1ccc(-c2nnc(O)c3ccccc23)cc1,250 to 255
3,COc1ccccc1-c1nnc(N)[nH]1,214 to 216
4,CC(O)c1ccc(CN)cc1 (configuration not stated),87 to 89
5,O=c1[nH]nc(N2CCNCC2)c(=O)[nH]1,150 to 152
6,CC(O)CNc1cc(Cl)ncn1 (configuration not stated),101 to 103
7,O=C(Nc1cnccn1)C1CCNCC1,131 to 133
8,CC(C)(C)c1ccc(-c2nnc(CCl)o2)cc1,65 to 67
9,O=C(CC1(C(=O)O)CCCC1)N1CCOCC1,150 to 152
10,CCOCCCNC(N)=S,84 to 86
11,COc1ccc(C(=O)CCC(=O)O)c(Cl)c1,165 to 167
12,Cc1nc(Cl)c2c3c(sc2n1)CCC3,91 to 93
13,Cn1nc(Br)c(C(=O)NCC(=O)O)c1N,239 to 241
14,Cc1ccc(C(=O)N=[N+]=[N-])o1,33 to 35
15,CC(=O)N1CCCC(C(N)=O)C1 (configuration not stated),146 to 148
16,CN(CC(=O)O)C(=O)C1CC1,112 to 114
17,CN1CCN(S(=O)(=O)c2ccc3c(c2)CCN3)CC1,176 to 178
18,NC(=S)c1ccccc1O,118 to 120
19,Cc1cc(C=O)c(C)n1-c1ccc(F)c(F)c1F,89 to 91
20,O=C1CCS(=O)(=O)c2ccc(Br)cc21,146 to 148
21,O=C(O)c1ccc(Cl)c(Cl)c1O,212 to 214
22,COc1cccc(-n2c(C)cc(C(=O)O)c2C)c1,142 to 144
23,Nc1cnn(-c2ccccn2)c1,79 to 81
24,C=CC(=O)Nc1ccccc1,103 to 106
25,Cc1nc(-c2ccccn2)nc(O)c1C,145 to 147

row,SMILES,melting point [°C]
1,Cc1nc2c(c(C)nn2C)c(C)c1CC(=O)O,245 to 247
2,CCN(CC)c1nc2ccccc2[nH]c1=O,151 to 153
3,O=C(O)c1nnn(-c2cccc(F)c2)c1C(F)(F)F,130 to 132
4,O=C(O)CN1CCSC1=O,173 to 175
5,NS(=O)(=O)c1ccc(NCC(=O)O)cc1,239 to 241
6,COC(=O)c1cccc(N2CC(=O)NC2=O)c1,189 to 191
7,Cc1nnnn1-c1cccc(N)c1,121 to 123
8,CCOC(=O)c1nnc(C)n1C1CC1,109 to 111
9,CC1=NN(c2ccc(Br)cc2)C(=O)C1,164 to 166
10,NCCCNc1ccc(C(F)(F)F)cn1,48 to 50
11,Cn1c(=O)oc2cc(C(=O)CCl)ccc21,159 to 161
12,Nc1cccc(Sc2ccc(Cl)cc2)c1,58 to 60
13,N#Cc1cccc(NC(=O)CCCl)c1,98 to 100
14,COc1ccc(CN2CCN(C(=O)CCNC(=O)c3ccc(C(C)(C)C)cc3)CC2)cc1,102 to 104
15,O=C(Nc1sccc1C(=O)O)c1ccco1,196 to 198
16,COc1ccc(Cc2nnc(N)s2)cc1,174 to 176
17,CC(C)(C)c1ccc(C2(C(=O)O)CCC2)cc1,179 to 181
18,Brc1ccccc1Oc1cccnn1,109 to 111
19,Cc1cc(C(=O)N2CCOCC2)ccc1N,101 to 103
20,CCOC(=O)c1ccc2c(c1)nc(CCl)n2CC,91 to 93
21,CCCN1CCCC1C(=O)O (configuration not stated),83 to 85
22,OC1CCCCC1c1ccc(Cl)cc1 (configuration not stated),83 to 85
